We go through 28 compounds from ChEMBL document CHEMBL5291721, “A preclinical secondary pharmacology resource illuminates target-adverse drug reaction associations of marketed drugs” (Nat Commun, 2023).

In experiment [1] the target is Histamine H1 receptor (Homo sapiens, UniProt P35367). Type of experiment: functional, cell-based.
Experiment [2] addresses T1, Muscarinic acetylcholine receptor M2 (Homo sapiens, UniProt P08172).
T1 sequence (P08172 whole entry): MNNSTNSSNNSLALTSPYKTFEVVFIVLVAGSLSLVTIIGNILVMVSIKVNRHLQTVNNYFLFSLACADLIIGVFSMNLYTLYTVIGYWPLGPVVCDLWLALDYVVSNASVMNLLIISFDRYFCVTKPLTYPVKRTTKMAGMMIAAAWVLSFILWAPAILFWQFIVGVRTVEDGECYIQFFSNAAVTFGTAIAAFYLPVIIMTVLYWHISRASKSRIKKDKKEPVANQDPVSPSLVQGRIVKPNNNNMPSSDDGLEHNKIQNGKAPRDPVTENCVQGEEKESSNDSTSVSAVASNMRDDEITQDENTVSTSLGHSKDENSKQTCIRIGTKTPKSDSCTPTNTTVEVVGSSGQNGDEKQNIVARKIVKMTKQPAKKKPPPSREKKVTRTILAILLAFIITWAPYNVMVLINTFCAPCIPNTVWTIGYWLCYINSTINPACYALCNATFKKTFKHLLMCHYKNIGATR

Experiment [3] deals with Acetylcholinesterase (Homo sapiens, UniProt P22303). Type of experiment: functional.
Chain of Acetylcholinesterase (P22303 whole entry): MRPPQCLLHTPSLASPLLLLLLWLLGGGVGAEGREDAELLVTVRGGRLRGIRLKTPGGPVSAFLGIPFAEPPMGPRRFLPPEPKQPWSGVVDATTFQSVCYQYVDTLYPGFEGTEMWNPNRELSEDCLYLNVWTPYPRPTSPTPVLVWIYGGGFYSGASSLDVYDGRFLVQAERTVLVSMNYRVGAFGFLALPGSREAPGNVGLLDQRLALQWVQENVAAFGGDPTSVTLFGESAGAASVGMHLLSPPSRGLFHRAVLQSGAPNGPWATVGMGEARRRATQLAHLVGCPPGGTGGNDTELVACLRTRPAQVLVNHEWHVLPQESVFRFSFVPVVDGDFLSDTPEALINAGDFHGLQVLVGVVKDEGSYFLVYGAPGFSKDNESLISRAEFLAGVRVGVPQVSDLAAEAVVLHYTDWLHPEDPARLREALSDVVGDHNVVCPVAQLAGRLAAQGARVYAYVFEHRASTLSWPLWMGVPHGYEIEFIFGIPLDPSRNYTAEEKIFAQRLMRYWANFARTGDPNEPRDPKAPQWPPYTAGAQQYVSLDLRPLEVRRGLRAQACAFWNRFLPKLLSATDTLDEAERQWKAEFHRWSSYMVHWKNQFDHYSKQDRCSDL
Experiment [4] concerns the target T2, Estrogen receptor (Homo sapiens, UniProt P03372).
T2 sequence (P03372 whole entry): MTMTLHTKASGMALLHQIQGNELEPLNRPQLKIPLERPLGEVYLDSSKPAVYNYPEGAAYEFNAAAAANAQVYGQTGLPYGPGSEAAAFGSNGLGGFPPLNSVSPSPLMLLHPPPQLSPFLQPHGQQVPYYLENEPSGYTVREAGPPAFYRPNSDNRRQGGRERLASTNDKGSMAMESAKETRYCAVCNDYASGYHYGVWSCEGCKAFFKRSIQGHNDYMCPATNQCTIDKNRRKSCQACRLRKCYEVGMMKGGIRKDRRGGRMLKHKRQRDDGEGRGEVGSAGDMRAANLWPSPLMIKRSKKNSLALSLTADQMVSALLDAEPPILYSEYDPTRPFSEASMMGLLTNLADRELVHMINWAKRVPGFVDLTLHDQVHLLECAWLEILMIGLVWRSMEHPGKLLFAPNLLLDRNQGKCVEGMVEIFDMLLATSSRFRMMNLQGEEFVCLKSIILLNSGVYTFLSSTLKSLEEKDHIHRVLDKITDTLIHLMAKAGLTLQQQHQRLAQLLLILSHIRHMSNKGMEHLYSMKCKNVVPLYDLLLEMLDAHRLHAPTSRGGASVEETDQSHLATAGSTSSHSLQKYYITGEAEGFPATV
Type of experiment: functional.

The target in experiment [5] is T3, Muscarinic acetylcholine receptor M5 (Homo sapiens, UniProt P08912).
T3 sequence (P08912 whole entry): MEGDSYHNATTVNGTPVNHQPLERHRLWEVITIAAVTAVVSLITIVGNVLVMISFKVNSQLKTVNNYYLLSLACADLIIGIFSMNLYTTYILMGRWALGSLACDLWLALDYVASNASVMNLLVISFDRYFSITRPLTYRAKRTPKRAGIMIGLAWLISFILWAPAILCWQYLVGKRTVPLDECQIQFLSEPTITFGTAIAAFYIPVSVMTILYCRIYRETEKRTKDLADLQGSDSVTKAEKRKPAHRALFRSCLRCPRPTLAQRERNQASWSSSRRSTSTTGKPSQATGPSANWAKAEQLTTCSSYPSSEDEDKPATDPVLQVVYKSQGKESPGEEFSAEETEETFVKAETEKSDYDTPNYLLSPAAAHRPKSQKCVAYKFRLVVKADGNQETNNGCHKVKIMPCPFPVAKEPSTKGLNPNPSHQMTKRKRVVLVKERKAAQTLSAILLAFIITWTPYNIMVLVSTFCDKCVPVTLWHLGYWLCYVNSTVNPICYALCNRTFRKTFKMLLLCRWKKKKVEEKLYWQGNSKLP

The target in experiment [6] is T4, Alpha-1A adrenergic receptor (Homo sapiens, UniProt P35348).
T4 sequence (P35348 whole entry): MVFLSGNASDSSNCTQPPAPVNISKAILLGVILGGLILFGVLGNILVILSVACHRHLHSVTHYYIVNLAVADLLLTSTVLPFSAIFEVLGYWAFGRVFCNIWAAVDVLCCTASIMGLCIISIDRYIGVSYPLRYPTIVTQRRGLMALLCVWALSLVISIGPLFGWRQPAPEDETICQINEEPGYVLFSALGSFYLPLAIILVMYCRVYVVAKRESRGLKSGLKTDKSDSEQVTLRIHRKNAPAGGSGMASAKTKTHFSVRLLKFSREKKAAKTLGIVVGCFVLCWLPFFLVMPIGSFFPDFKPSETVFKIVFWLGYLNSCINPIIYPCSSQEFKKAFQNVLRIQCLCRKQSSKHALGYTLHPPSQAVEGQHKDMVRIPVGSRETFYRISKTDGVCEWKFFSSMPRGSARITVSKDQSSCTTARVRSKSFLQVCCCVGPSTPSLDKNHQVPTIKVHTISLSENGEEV

Experiment [7] has as its target T5, Adenosine receptor A1 (Homo sapiens, UniProt P30542).
T5 sequence (P30542 whole entry): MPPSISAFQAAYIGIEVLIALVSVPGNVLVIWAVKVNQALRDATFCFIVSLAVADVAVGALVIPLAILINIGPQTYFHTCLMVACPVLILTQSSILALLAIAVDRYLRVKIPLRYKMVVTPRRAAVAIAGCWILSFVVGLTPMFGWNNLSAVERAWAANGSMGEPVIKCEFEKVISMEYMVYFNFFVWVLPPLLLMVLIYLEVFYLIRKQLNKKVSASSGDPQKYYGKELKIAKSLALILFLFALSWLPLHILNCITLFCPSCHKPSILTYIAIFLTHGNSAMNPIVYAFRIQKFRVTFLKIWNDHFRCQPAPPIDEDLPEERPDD

The target in experiment [8] is 5-hydroxytryptamine receptor 5A (Homo sapiens, UniProt P47898).
Chain of 5-hydroxytryptamine receptor 5A (P47898 whole entry): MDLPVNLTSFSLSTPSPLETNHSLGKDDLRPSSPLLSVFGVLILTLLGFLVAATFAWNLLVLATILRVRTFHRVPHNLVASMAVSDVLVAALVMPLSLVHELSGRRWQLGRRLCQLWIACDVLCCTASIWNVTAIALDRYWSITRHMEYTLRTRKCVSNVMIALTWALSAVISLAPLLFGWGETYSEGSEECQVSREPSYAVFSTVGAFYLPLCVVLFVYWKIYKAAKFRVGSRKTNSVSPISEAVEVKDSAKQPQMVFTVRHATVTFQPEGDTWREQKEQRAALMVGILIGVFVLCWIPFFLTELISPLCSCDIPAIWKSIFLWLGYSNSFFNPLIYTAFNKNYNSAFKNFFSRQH

Molecules are shown by their SMILES.

Usually AC50 stands for the concentration at which the activity in the assay is half-maximal. A high value points to weaker potency.
Further: assay procedure not described here.

Chain of Histamine H1 receptor (P35367 whole entry): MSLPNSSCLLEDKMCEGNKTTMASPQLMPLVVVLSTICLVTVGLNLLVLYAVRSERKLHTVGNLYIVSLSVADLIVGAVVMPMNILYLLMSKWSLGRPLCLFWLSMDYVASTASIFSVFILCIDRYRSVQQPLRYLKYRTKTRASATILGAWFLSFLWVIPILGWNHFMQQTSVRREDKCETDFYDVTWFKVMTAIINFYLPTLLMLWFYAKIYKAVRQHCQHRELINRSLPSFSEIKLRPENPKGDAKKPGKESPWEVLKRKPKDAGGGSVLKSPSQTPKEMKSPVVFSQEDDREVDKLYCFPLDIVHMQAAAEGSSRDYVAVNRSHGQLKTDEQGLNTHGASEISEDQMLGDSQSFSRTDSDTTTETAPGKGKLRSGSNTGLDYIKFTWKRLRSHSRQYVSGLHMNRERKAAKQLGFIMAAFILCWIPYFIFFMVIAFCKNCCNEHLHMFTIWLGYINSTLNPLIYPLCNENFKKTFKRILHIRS

Compound `CC(C(=O)O)c1ccc(N2CC=CC2)c(Cl)c1` (centres undefined) [PIRPROFEN] displayed an AC50 in experiment [1] of more than 30 µM.

Regarding `Oc1ncnc2[nH]ncc12` [ALLOPURINOL], in experiment [2], the concentration at half-maximal activity (AC50) was more than 30 µM.

In the case of `CO/N=C(\C(=O)N[C@@H]1C(=O)N2C(C(=O)[O-])=C(C[N+]3(C)CCCC3)CS[C@H]12)c1csc(N)n1`, the concentration at half-maximal activity (AC50) is more than 300 µM in experiment [3] and 54 µM in experiment [4].

As for `O=C(CCCCCCC(=O)Nc1ccccc1)NO` [VORINOSTAT], the AC50 in experiment [1] is more than 30 µM; in experiment [5] it was more than 10 µM.

With `CC(=O)OCC(=O)[C@@]1(O)CC[C@H]2[C@@H]3CCC4=CC(=O)CC[C@]4(C)[C@H]3C(=O)C[C@@]21C` [CORTISONE ACETATE], the AC50 in experiment [6] and in experiment [7] was more than 30 µM in each case.

As for `COc1cc(Nc2c(C#N)cnc3cc(OCCCN4CCN(C)CC4)c(OC)cc23)c(Cl)cc1Cl` [BOSUTINIB], the figures for the concentration at half-maximal activity (AC50) in experiment [5] and in experiment [7] were 12.1 µM and more than 30 µM, respectively.

Regarding `C#C[C@]1(O)CC[C@H]2[C@@H]3CCc4cc(O)ccc4[C@H]3CC[C@@]21C` [ETHINYL ESTRADIOL], the AC50 in experiment [8] and in experiment [7] was more than 30 µM in each case.

Turning to `Cc1cc2c(cc1CC(=O)c1sccc1S(=O)(=O)Nc1onc(C)c1Cl)OCO2` [SITAXENTAN], the AC50 in experiment [6] and in experiment [7] was more than 30 µM throughout.

On to `CCC(=O)O[C@H]1[C@H](O[C@@H]2[C@@H](C)[C@H](O[C@H]3C[C@@](C)(OC)[C@@H](O)[C@H](C)O3)[C@@H](C)C(=O)O[C@H](CC)[C@@](C)(O)[C@H](O)[C@@H](C)C(=O)[C@H](C)C[C@@]2(C)O)O[C@H](C)C[C@@H]1N(C)C` [ERYTHROMYCIN PROPIONATE], for which the half-maximal activity concentration (AC50) in experiment [6] and in experiment [7] was more than 30 µM in each case.

Regarding `CC(C)C(=O)Nc1ccc([N+](=O)[O-])c(C(F)(F)F)c1` [FLUTAMIDE], the AC50 in experiment [2] is more than 30 µM.

Compound `OCc1cc([C@@H](O)CNCCCCCCOCCOCc2c(Cl)cccc2Cl)ccc1O` [VILANTEROL] returned an AC50 in experiment [4] of more than 30 µM.

`OCCN1CCN(CCCN2c3ccccc3C=Cc3ccccc32)CC1` [OPIPRAMOL] registered an AC50 in experiment [7] of more than 30 µM.

Turning to `NS(=O)(=O)c1cc2c(cc1Cl)NCNS2(=O)=O` [HYDROCHLOROTHIAZIDE], the AC50 in experiment [8] and in experiment [5] was more than 10 µM in each case.

Consider `OC[C@@H](O)[C@@H](O)[C@H](O)[C@H](O)CO` [MANNITOL], for which the AC50 in experiment [6] and in experiment [7] was more than 30 µM throughout.

`COC(=O)[C@@H]1CC2=CC(=O)CC[C@]2(C)[C@@]23O[C@@H]2C[C@@]2(C)[C@@H](CC[C@@]24CCC(=O)O4)[C@H]13` [EPLERENONE]: the AC50 in experiment [1], in experiment [3] and in experiment [4] was more than 30 µM throughout.

`NC(N)=Nc1nc(CSCCC(N)=NS(N)(=O)=O)cs1` [FAMOTIDINE]: the AC50 in experiment [8] and in experiment [5] was more than 10 µM throughout.

In experiment [4], `CC(N)Cc1ccccc1` (centres undefined) [AMPHETAMINE] had a concentration at half-maximal activity (AC50) of more than 30 µM.

In experiment [2], `NC(=O)c1cnccn1` [PYRAZINAMIDE] had an AC50 of more than 30 µM.

As to `Nc1nc(N)c2nc(-c3ccccc3)c(N)nc2n1`, the concentration at half-maximal activity (AC50) in experiment [8] was more than 10 µM; in experiment [5] it was more than 10 µM; in experiment [2], more than 30 µM.

For `COc1cc2c(cc1OC)C(=O)C(CC1CCN(Cc3ccccc3)CC1)C2` (centres undefined) [DONEPEZIL], the AC50 in experiment [5] came to 15.4 µM. This counts as double-digit micromolar.

The compound `CC(C)Cc1ccc(CC(=O)O)cc1` [IBUFENAC] yielded a half-maximal activity concentration (AC50) in experiment [3] of more than 30 µM.

For `O=C(NC[C@H]1CN(c2ccc(N3CCOCC3=O)cc2)C(=O)O1)c1ccc(Cl)s1` [RIVAROXABAN], in experiment [7], the concentration at half-maximal activity (AC50) was more than 30 µM.

In the case of `C[C@H]1O[C@H](O[C@H]2[C@H](O)[C@@H](O)[C@@H](O[C@H]3[C@H](O)[C@@H](O)C(O)O[C@@H]3CO)O[C@@H]2CO)[C@H](O)[C@@H](O)[C@@H]1N[C@H]1C=C(CO)[C@@H](O)[C@H](O)[C@H]1O` (some centres undefined) [ACARBOSE], in experiment [5], the concentration at half-maximal activity (AC50) is more than 10 µM.

For `CCOC(=O)[C@H](CCc1ccccc1)N[C@@H](C)C(=O)N1CCC[C@H]1C(=O)O`, the concentration at half-maximal activity (AC50) in experiment [8] and in experiment [5] was more than 10 µM each time.

On to `CC(=O)c1ccc2c(c1)N(CCCN1CCN(CCO)CC1)c1ccccc1S2` [ACETOPHENAZINE], for which, in experiment [4], the half-maximal activity concentration (AC50) is more than 30 µM.

Regarding `CC(C)NNC(=O)c1ccncc1` [IPRONIAZID], the concentration at half-maximal activity (AC50) in experiment [3] and in experiment [4] was more than 30 µM throughout.

Consider `CN1CCCC(n2nc(Cc3ccc(Cl)cc3)c3ccccc3c2=O)CC1` (centres undefined) [AZELASTINE], for which, in experiment [4], the concentration at half-maximal activity (AC50) was more than 30 µM.

Compound `CC[C@H](C)C(=O)O[C@H]1C[C@H](O)C=C2C=C[C@H](C)[C@H](CC[C@@H](O)C[C@@H](O)CC(=O)O)[C@H]21` [PRAVASTATIN] displayed a half-maximal activity concentration (AC50) in experiment [4] of more than 30 µM.
